According to ChEMBL document CHEMBL1201862, “PubChem BioAssay data set” (2004):
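Protocol summary: plate cells (96-well), add compound at 5 concentrations, incubate 48 h, interpolate endpoints linearly. The concentration for 50% growth inhibition is given as GI50.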 Active and inactive are the calls of the source. Cut-off read from the data, not from the text of the source: active = GI50 up to about 1.1 µM and inactive = higher.

What was measured:
Assay in all cases: inhibition of tumour cell growth, NCI panel, 48 h
[1] = test system: 786-0
[2] = test system: A498
[3] = test system: A549
[4] = test system: ACHN
[5] = test system: CAKI-1
[6] = test system: CCRF-CEM
[7] = test system: COLO 205
[8] = test system: DLD-1
[9] = test system: DMS-114
[10] = test system: DMS-273
[11] = test system: HCC 2998
[12] = test system: HCT-116
[13] = test system: HL-60
[14] = test system: HOP-18
[15] = test system: HOP-92
[16] = test system: HT-29
[17] = test system: IGROV-1
[18] = test system: K562
[19] = test system: KM12
[20] = test system: LXFL 529
[21] = test system: MOLT-4
[22] = test system: Malme-3M
[23] = test system: NCI-H226
[24] = test system: NCI-H23
[25] = test system: NCI-H460
[26] = test system: NCI-H522
[27] = test system: OVCAR-3
[28] = test system: OVCAR-5
[29] = test system: OVCAR-8
[30] = test system: RPMI-8226
[31] = test system: RXF 393
[32] = test system: RXF 631
[33] = test system: SF-268
[34] = test system: SF-295
[35] = test system: SF-539
[36] = test system: SK-MEL-28
[37] = test system: SK-MEL-2
[38] = test system: SK-MEL-5
[39] = test system: SK-OV-3
[40] = test system: SN12C
[41] = test system: SNB-19
[42] = test system: SNB-75
[43] = test system: SNB-78
[44] = test system: SR
[45] = test system: SW-620
[46] = test system: TK-10
[47] = test system: U-251
[48] = test system: UACC-257
[49] = test system: UACC-62
[50] = test system: UO-31
[51] = test system: EKVX
[52] = test system: HCT-15
[53] = test system: HOP-62
[54] = test system: KM-20L2
[55] = test system: LOX IMVI
[56] = test system: M14
[57] = test system: M19-MEL
[58] = test system: OVCAR-4
[59] = test system: XF498

## ClC[Si]12OCCN(CCO1)CCO2
[1]
  GI50: > 100 µM (inactive)
[2]
  GI50: > 100 µM (inactive)
[3]
  GI50: > 100 µM (inactive)
[4]
  GI50: > 100 µM (inactive)
[5]
  GI50: > 100 µM (inactive)
[6]
  GI50: > 100 µM (inactive)
[7]
  GI50: > 100 µM (inactive)
[8]
  GI50: > 100 µM (inactive)
[9]
  GI50: > 100 µM (inactive)
[10]
  GI50: > 100 µM (inactive)
[11]
  GI50: > 100 µM (inactive)
[12]
  GI50: > 100 µM (inactive)
[13]
  GI50: > 100 µM (inactive)
[14]
  GI50: > 100 µM (inactive)
[15]
  GI50: > 100 µM (inactive)
[16]
  GI50: > 100 µM (inactive)
[17]
  GI50: > 100 µM (inactive)
[18]
  GI50: > 100 µM (inactive)
[19]
  GI50: > 100 µM (inactive)
[20]
  GI50: > 100 µM (inactive)
[21]
  GI50: > 100 µM (inactive)
[22]
  GI50: > 100 µM (inactive)
[23]
  GI50: > 100 µM (inactive)
[24]
  GI50: > 100 µM (inactive)
[25]
  GI50: > 100 µM (inactive)
[26]
  GI50: > 100 µM (inactive)
[27]
  GI50: > 100 µM (inactive)
[28]
  GI50: > 100 µM (inactive)
[29]
  GI50: > 100 µM (inactive)
[30]
  GI50: > 100 µM (inactive)
[31]
  GI50: > 100 µM (inactive)
[32]
  GI50: > 100 µM (inactive)
[33]
  GI50: > 100 µM (inactive)
[34]
  GI50: > 100 µM (inactive)
[35]
  GI50: > 100 µM (inactive)
[36]
  GI50: > 100 µM (inactive)
[37]
  GI50: > 100 µM (inactive)
[38]
  GI50: > 100 µM (inactive)
[39]
  GI50: > 100 µM (inactive)
[40]
  GI50: > 100 µM (inactive)
[41]
  GI50: > 100 µM (inactive)
[42]
  GI50: > 100 µM (inactive)
[43]
  GI50: > 100 µM (inactive)
[44]
  GI50: > 100 µM (inactive)
[45]
  GI50: > 100 µM (inactive)
[46]
  GI50: > 100 µM (inactive)
[47]
  GI50: > 100 µM (inactive)
[48]
  GI50: > 100 µM (inactive)
[49]
  GI50: > 100 µM (inactive)
[50]
  GI50: > 100 µM (inactive)

## COc1ccc(/C=C/c2cc(OC)c(OC)c(OC)c2)cc1
[1]
  GI50: 11.1 µM (inactive)
[2]
  GI50: 3.4 µM (inactive)
[3]
  GI50: 7.55 µM (inactive)
[4]
  GI50: 5.98 µM (inactive)
[5]
  GI50: 3.53 µM (inactive)
[6]
  GI50: 1.66 µM (inactive)
[7]
  GI50: 3.14 µM (inactive)
[8]
  GI50: 0.897 µM (active)
[9]
  GI50: 27 µM (inactive)
[10]
  GI50: 2.8 µM (inactive)
[51]
  GI50: 24.2 µM (inactive)
[11]
  GI50: 3.7 µM (inactive)
[12]
  GI50: 2.86 µM (inactive)
[52]
  GI50: 2.57 µM
[13]
  GI50: 2.75 µM (inactive)
[53]
  GI50: 3.48 µM (inactive)
[15]
  GI50: 90.8 µM (inactive)
[16]
  GI50: 3.2 µM (inactive)
[17]
  GI50: 11 µM (inactive)
[18]
  GI50: 3.2 µM (inactive)
[54]
  GI50: 2.34 µM (inactive)
[19]
  GI50: 3.3 µM (inactive)
[55]
  GI50: 5.52 µM (inactive)
[20]
  GI50: 31.8 µM (inactive)
[56]
  GI50: 42 µM (inactive)
[57]
  GI50: 9.95 µM (inactive)
[21]
  GI50: 2.21 µM (inactive)
[22]
  GI50: 3.27 µM (inactive)
[23]
  GI50: 5.61 µM (inactive)
[24]
  GI50: 5.81 µM (inactive)
[25]
  GI50: 3.9 µM (inactive)
[26]
  GI50: 2.85 µM (inactive)
[27]
  GI50: 3.26 µM (inactive)
[58]
  GI50: 41.5 µM (inactive)
[28]
  GI50: 1.85 µM (inactive)
[29]
  GI50: 15.8 µM (inactive)
[30]
  GI50: 1.09 µM (active)
[31]
  GI50: 1.48 µM (inactive)
[32]
  GI50: 3.73 µM (inactive)
[33]
  GI50: 15.1 µM (inactive)
[34]
  GI50: 2.73 µM (inactive)
[35]
  GI50: 4.29 µM (inactive)
[36]
  GI50: 18.7 µM (inactive)
[37]
  GI50: 2.36 µM (inactive)
[38]
  GI50: 3.68 µM (inactive)
[39]
  GI50: 8.59 µM (inactive)
[40]
  GI50: 13.2 µM (inactive)
[41]
  GI50: 13.6 µM (inactive)
[42]
  GI50: 3.43 µM (inactive)
[43]
  GI50: 17.8 µM (inactive)
[45]
  GI50: 5.77 µM (inactive)
[46]
  GI50: 43.7 µM (inactive)
[47]
  GI50: 2.61 µM (inactive)
[48]
  GI50: > 100 µM (inactive)
[49]
  GI50: 3.25 µM (inactive)
[50]
  GI50: 4.68 µM (inactive)
[59]
  GI50: 0.592 µM (active)
